Experimental data published in US12377110B2, “Fospropofol methods and compositions” (Epalex Corporation, priority 2019, dated 2025).

Legend:
[1] = Study A16 Part 1: PK of single ascending oral doses of fospropofol disodium (200 to 2000 mg), fasted healthy adults; type: in vivo, human; settings: for AUC(0-inf) / Cmax / Tmax / AUC(0-t) / half-life: both sexes, human, plasma
Procedure: Part 1 of Study A16 was a double-blind, randomized, placebo-controlled study to investigate the safety-tolerability and PK of oral administration of single ascending doses of fospropofol disodium to healthy adult male and female volunteers.
Subjects were healthy adults (age 18-55 years inclusive, BMI 18-29.9 kg/m^2). Separate cohorts of 12 subjects each were randomized to receive fospropofol disodium at doses of 200, 400, 800, 1000, 1200, 1600, or 2000 mg (n=10 per cohort) or matching placebo (n=2 per cohort).
Subjects were admitted to the clinical unit for an overnight fast (Day −1), administered study drug on Day 1, and remained in the clinical unit until Day 2.
Fospropofol disodium was formulated as powder in an HPMC capsule, each capsule containing 200 mg of fospropofol disodium (weight adjusted for water content). Placebo was administered as an appropriate number of matching capsules.
Based on PK results from the early cohorts, sampling times were optimized beginning with Cohort 3 (800 mg) to preclose, 5, 10, 15, 20, 25, 30, 37, and 45, minutes and 1, 2, 4, 6, and 9 hours after closing.

[2] = Study No. 15-4 toxicokinetics of fospropofol and propofol in plasma; type: in vivo, Beagle dogs; settings: for Propofol AUC0-6hr increase after 14 days compared with Day 1 / Propofol Cmax increase after 14 days compared with Day 1: 160-mg/kg
Procedure: The purpose of Study No. 15-4 (GLP) was to determine the potential toxicity of fospropofol in Beagle dogs when administered once daily by oral gavage for 14 days. […] Because the treatment-related clinical observations (consistent with the expected transient sedative actions of fospropofol) and effects on hematology and clinical chemistry parameters were considered nonadverse, the NOAEL was determined to be 160 mg/kg/day (3200 mg/m^2/day).

[3] = Study No. 15-3 toxicokinetics of fospropofol and propofol in plasma; type: in vivo, Sprague-Dawley rats; settings: for AUC(0-t): Propofol AUC0-6 hr
Procedure: The purpose of Study No. 15-3 (GLP) was to determine the potential toxicity of fospropofol in Sprague-Dawley rats when administered once daily by oral gavage for 14 days. […] The cause of death for the three 250 mg/kg/day group main study females found dead could not be determined, but was considered related to the pharmacodynamic effects of fospropofol, based on the time of death relative to the time of close administration, and the clinical signs recorded before death. Clinical observations during the closing period for these animals included labored breathing, prostrate, splayed hindlimbs, uncoordinated movement, decreased activity, and eyes closed.

[4] = 200, 400, 800, and 1000 mg cohorts
[5] = oral fospropofol disodium 200 mg, mean
[6] = oral fospropofol disodium 400 mg, mean
[7] = oral fospropofol disodium 800 mg, mean
[8] = oral fospropofol disodium 1000 mg, mean, n = 9
[9] = oral fospropofol disodium 1600 mg, mean
[10] = oral fospropofol disodium 2000 mg, mean

CC(C)c1cccc(C(C)C)c1O [propofol, 2,6-diisopropylphenol]
Dose proportionality of propofol AUC0-2h and Cmax ([1]; 200 mg to 2000 mg): close proportional
Dose proportionality of propofol AUC0-T and AUC0-∞ ([1]; 200 mg to 2000 mg): slightly greater than close-proportional
Highest observed propofol Cmax relative to the mean Cmax of the cohort [1, 4]: greater than 2 times
Highest observed propofol Cmax: standard deviations above the cohort mean [1, 4]: greater than 2 standard deviations
Dose proportionality of propofol exposure (both Cmax and AUC) ([1]; 200 to 2000 mg, preliminary PK data): approximately close proportional
Highest observed propofol Cmax relative to mean Cmax ([1]; 800-mg cohort): approximately 3.7 fold
AUC(0-inf) ([1]; oral, 200 mg, Propofol AUC0-inf (arithmetic mean, n=10), after a single 200-mg capsule): 118 ng·h/mL
AUC(0-inf) ([1]; oral, 200 mg, Propofol AUC0-inf (geometric mean, n=10), after a single 200-mg capsule): 112 ng·h/mL
Cmax ([1]; oral, 200 mg, Propofol Cmax (arithmetic mean, n=10), after a single 200-mg capsule): 69.4 ng/mL
Cmax ([1]; oral, 200 mg, Propofol Cmax (geometric mean, n=10), after a single 200-mg capsule): 61.7 ng/mL
Tmax ([1]; oral, 200 mg, Propofol median Tmax, 200-mg dose): 30 min
Cmax ([1]; oral, 800 mg, Highest observed propofol Cmax, 800-mg cohort): 1350 ng/mL
Cmax ([1]; oral, 800 mg, Mean propofol Cmax, 800 mg cohort): 362 ng/mL
AUC(0-inf) ([1]; oral, 800 mg, Propofol AUC0-inf (arithmetic mean, n=10), single dose of 800 mg (four 200 mg capsules)): 559 ng·h/mL
Cmax ([1]; oral, 800 mg, Propofol Cmax (arithmetic mean, n=10), single dose of 800 mg (four 200 mg capsules)): 362 ng/mL
Tmax ([1]; oral, 1200 mg, Propofol Tmax (median), fasting conditions): 37 min
Tmax ([1]; oral, 2000 mg, Propofol median Tmax, doses of 1600 or 2000 mg): 45 min
AUC(0-inf) ([1]; po, 200 mg, Propofol AUC0-∞, oral fospropofol disodium 200 mg, mean): 118 ng·h/mL
Cmax ([1]; po, 200 mg, Propofol Cmax Maximum, oral fospropofol disodium 200 mg): 191 ng/mL
Cmax ([1]; po, 200 mg, Propofol Cmax Mean (SD), oral fospropofol disodium 200 mg): 69 ng/mL
Cmax ([1]; po, 200 mg, Propofol Cmax Minimum, oral fospropofol disodium 200 mg): 35.1 ng/mL
Cmax ([1]; po, 200 mg, Propofol Cmax, oral fospropofol disodium 200 mg, mean): 69 ng/mL
Tmax ([1]; po, 200 mg, Propofol Tmax, oral fospropofol disodium 200 mg, median): 30 min
AUC(0-inf) ([1]; po, 400 mg, Propofol AUC0-∞, oral fospropofol disodium 400 mg, mean): 298 ng·h/mL
Cmax ([1]; po, 400 mg, Propofol Cmax Maximum, oral fospropofol disodium 400 mg): 499 ng/mL
Cmax ([1]; po, 400 mg, Propofol Cmax Mean (SD), oral fospropofol disodium 400 mg): 201 ng/mL
Cmax ([1]; po, 400 mg, Propofol Cmax Minimum, oral fospropofol disodium 400 mg): 33.5 ng/mL
Cmax ([1]; po, 400 mg, Propofol Cmax, oral fospropofol disodium 400 mg, mean): 201 ng/mL
Tmax ([1]; po, 400 mg, Propofol Tmax, oral fospropofol disodium 400 mg, median): 30 min
AUC(0-inf) ([1]; po, 800 mg, Propofol AUC0-∞, oral fospropofol disodium 800 mg, mean): 577 ng·h/mL
Cmax ([1]; po, 800 mg, Propofol Cmax Maximum, oral fospropofol disodium 800 mg): 1350 ng/mL
Cmax ([1]; po, 800 mg, Propofol Cmax Mean (SD), oral fospropofol disodium 800 mg): 362 ng/mL
Cmax ([1]; po, 800 mg, Propofol Cmax Minimum, oral fospropofol disodium 800 mg): 127 ng/mL
Cmax ([1]; po, 800 mg, Propofol Cmax, oral fospropofol disodium 800 mg, mean): 362 ng/mL
Tmax ([1]; po, 800 mg, Propofol Tmax, oral fospropofol disodium 800 mg, median): 37.2 min
AUC(0-inf) ([1]; po, 1000 mg, Propofol AUC0-∞, oral fospropofol disodium 1000 mg, mean, n = 9): 887 ng·h/mL
Cmax ([1]; po, 1000 mg, Propofol Cmax Maximum, oral fospropofol disodium 1000 mg, n = 9): 681 ng/mL
Cmax ([1]; po, 1000 mg, Propofol Cmax Mean (SD), oral fospropofol disodium 1000 mg, n = 9): 403 ng/mL
Cmax ([1]; po, 1000 mg, Propofol Cmax Minimum, oral fospropofol disodium 1000 mg, n = 9): 267 ng/mL
Cmax ([1]; po, 1000 mg, Propofol Cmax, oral fospropofol disodium 1000 mg, mean, n = 9): 403 ng/mL
Tmax ([1]; po, 1000 mg, Propofol Tmax, oral fospropofol disodium 1000 mg, median, n = 9): 45 min
Cmax ([1]; po, 1200 mg, Propofol Cmax Maximum, oral fospropofol disodium 1200 mg): 1190 ng/mL
Cmax ([1]; po, 1200 mg, Propofol Cmax Mean (SD), oral fospropofol disodium 1200 mg): 641 ng/mL
Cmax ([1]; po, 1200 mg, Propofol Cmax Minimum, oral fospropofol disodium 1200 mg): 193 ng/mL
Cmax ([1]; po, 1600 mg, Propofol Cmax Maximum, oral fospropofol disodium 1600 mg): 1170 ng/mL
Cmax ([1]; po, 1600 mg, Propofol Cmax Mean (SD), oral fospropofol disodium 1600 mg): 748 ng/mL
Cmax ([1]; po, 1600 mg, Propofol Cmax Minimum, oral fospropofol disodium 1600 mg): 229 ng/mL
AUC(0-inf) ([1]; po, 2000 mg, Propofol AUC0-∞, oral fospropofol disodium 2000 mg, mean): 2250 ng·h/mL
Cmax ([1]; po, 2000 mg, Propofol Cmax Maximum, oral fospropofol disodium 2000 mg): 1620 ng/mL
Cmax ([1]; po, 2000 mg, Propofol Cmax Mean (SD), oral fospropofol disodium 2000 mg): 806 ng/mL
Cmax ([1]; po, 2000 mg, Propofol Cmax Minimum, oral fospropofol disodium 2000 mg): 200 ng/mL
Cmax ([1]; po, 2000 mg, Propofol Cmax, oral fospropofol disodium 2000 mg, mean): 806 ng/mL
Tmax ([1]; po, 2000 mg, Propofol Tmax, oral fospropofol disodium 2000 mg, median): 45 min
AUC(0-t) [1, 5]: 103 ng·h/mL
half-life [1, 5]: 228 min
AUC(0-t) [1, 6]: 276 ng·h/mL
half-life [1, 6]: 176 min
AUC(0-t) [1, 7]: 551 ng·h/mL
half-life [1, 7]: 116 min
AUC(0-t) [1, 8]: 846 ng·h/mL
half-life [1, 8]: 121 min
half-life [1, 9]: 177 min
AUC(0-t) [1, 10]: 2000 ng·h/mL
half-life [1, 10]: 118 min
Propofol concentration relative to Cmax ([1]; by 4 hours after dosing): less than 25 % of Cmax
Propofol Cmax CV ([1]; oral fospropofol disodium 200 mg): 64%
Propofol CL/F [1, 5]: 1889 L/h
Propofol Cmax CV ([1]; oral fospropofol disodium 400 mg): 63%
Propofol CL/F [1, 6]: 1658 L/h
Propofol Cmax CV ([1]; oral fospropofol disodium 800 mg): 99%
Propofol CL/F [1, 7]: 1561 L/h
Propofol CL/F [1, 8]: 1213 L/h
Propofol Cmax CV ([1]; oral fospropofol disodium 1000 mg, n = 9): 30%
Propofol Cmax CV ([1]; oral fospropofol disodium 1200 mg): 46%
Propofol CL/F ([1]; oral fospropofol disodium 1200 mg, Fasted (Cohort 5), n = 10, mean): 1260 L/h
Propofol CL/F ([1]; oral fospropofol disodium 1200 mg, mean): 1260 L/h
Propofol Cmax CV ([1]; oral fospropofol disodium 1600 mg): 44%
Propofol CL/F [1, 9]: 1182 L/h
Propofol Cmax CV ([1]; oral fospropofol disodium 2000 mg): 51%
Propofol CL/F [1, 10]: 933 L/h
Propofol AUC0-6hr increase after 14 days compared with Day 1 ([2]; females): over 5 fold
Propofol Cmax increase after 14 days compared with Day 1 ([2]; females): ~3 fold
Propofol AUC0-6hr increase after 14 days compared with Day 1 ([2]; males): over 2 fold
Propofol Cmax increase after 14 days compared with Day 1 ([2]; males): about 7 fold
Tmax ([2]; Beagle, dog, plasma, po, Propofol Tmax, most groups): 5 to 60 min
Increase of propofol Cmax and AUC0-6hr with dose ([2]; Day 1, both sexes): close proportional
Increase of propofol Cmax and AUC0-6hr with dose ([2]; Day 14, both sexes): more than close proportional
half-life ([2]; female, Beagle, dog, plasma, po, females): 30 to 78 min
half-life ([2]; male, Beagle, dog, plasma, po, males): 48 to 108 min
Increase of propofol Cmax and AUC0-6hr with fospropofol dose ([3]; Days 1 and 14): approximately close-proportional
Propofol AUC0-6hr following repeated administration ([3]; female rats): appeared to increase
Propofol AUC0-6hr following repeated administration ([3]; male rats): did not appear to change
AUC(0-t) ([3]; male, Sprague-Dawley, rat, plasma, po, 50 mg/kg, oral gavage fospropofol disodium, Male, 50 mg/kg, Day 1): 219 ng·h/mL
AUC(0-t) ([3]; male, Sprague-Dawley, rat, plasma, po, 50 mg/kg, oral gavage fospropofol disodium, Male, 50 mg/kg, Day 14): 416 ng·h/mL
Cmax ([3]; male, Sprague-Dawley, rat, plasma, po, 50 mg/kg, Propofol Cmax, oral gavage fospropofol disodium, Male, 50 mg/kg, Day 14): 301 ng/mL
Tmax ([3]; male, Sprague-Dawley, rat, plasma, po, 50 mg/kg, Propofol Tmax, oral gavage fospropofol disodium, Male, 50 mg/kg, Day 14): 15 min
Dependence of systemic exposure on sex ([3]; rats, 14 days oral gavage fospropofol disodium): greater exposure in females
